Data published in patent EP2277860B1, “Compositions comprising sulfonated estolides and alkyl ester sulfonates, methods of making them, and compositions and processes employing them” (STEPAN COMPANY, priority 2009, dated 2011).

Assay: CMC via the Wilhelmy plate technique
Format: physicochemical
Experimental: Not to be bound by theory, surfactants with low CMC values tend to be more mild to enzymes based on low monomer concentrations in solution which interfere with enzyme stability. The measured CMC, via the Wilhelmy plate technique, of SHP is 30 mg/L while that of the sodium salt of AES is 80 mg/L and NaLAS is 900 mg/L.

CMC: 900 mg/L
Substance: linear alkylbenzene sulfonic acid, sodium salt [NaLAS]
